What was measured:
Format in all cases: functional
HCT-116 = assay: Growth inhibition of human HCT-116 cells incubated for 48 hrs by sulforhodamine B assay
K562 = assay: Growth inhibition of human K562 cells incubated for 48 hrs by sulforhodamine B assay
HOP-62 = assay: Growth inhibition of human HOP-62 cells incubated for 48 hrs by sulforhodamine B assay
A549 = assay: Growth inhibition of human A549/ATCC cells incubated for 48 hrs by sulforhodamine B assay
OVCAR-5 = assay: Growth inhibition of human OVCAR-5 cells incubated for 48 hrs by sulforhodamine B assay
TK-10 = assay: Growth inhibition of human TK-10 cells incubated for 48 hrs by sulforhodamine B assay
HCT-15 = assay: Growth inhibition of human HCT-15 cells incubated for 48 hrs by sulforhodamine B assay
OVCAR-8 = assay: Growth inhibition of human OVCAR-8 cells incubated for 48 hrs by sulforhodamine B assay
A498 = assay: Growth inhibition of human A498 cells incubated for 48 hrs by sulforhodamine B assay
MDA-MB-435 = assay: Growth inhibition of human MDA-MB-435 cells incubated for 48 hrs by sulforhodamine B assay
RXF 393 = assay: Growth inhibition of human RXF 393 cells incubated for 48 hrs by sulforhodamine B assay
SN12C = assay: Growth inhibition of human SN12C cells incubated for 48 hrs by sulforhodamine B assay
SF-295 = assay: Growth inhibition of human SF-295 cells incubated for 48 hrs by sulforhodamine B assay
OVCAR-4 = assay: Growth inhibition of human OVCAR-4 cells incubated for 48 hrs by sulforhodamine B assay
KM12 = assay: Growth inhibition of human KM12 cells incubated for 48 hrs by sulforhodamine B assay
OVCAR-3 = assay: Growth inhibition of human OVCAR-3 cells incubated for 48 hrs by sulforhodamine B assay
HL-60(TB) = assay: Growth inhibition of human HL-60(TB) cells incubated for 48 hrs by sulforhodamine B assay
SF-268 = assay: Growth inhibition of human SF-268 cells incubated for 48 hrs by sulforhodamine B assay
Hs-578T = assay: Growth inhibition of human Hs-578T cells incubated for 48 hrs by sulforhodamine B assay
DU-145 = assay: Growth inhibition of human DU-145 cells incubated for 48 hrs by sulforhodamine B assay
UACC-257 = assay: Growth inhibition of human UACC-257 cells incubated for 48 hrs by sulforhodamine B assay
MOLT-4 = assay: Growth inhibition of human MOLT-4 cells incubated for 48 hrs by sulforhodamine B assay
SW-620 = assay: Growth inhibition of human SW-620 cells incubated for 48 hrs by sulforhodamine B assay
NCI-H522 = assay: Growth inhibition of human NCI-H522 cells incubated for 48 hrs by sulforhodamine B assay
SK-MEL-28 = assay: Growth inhibition of human SK-MEL-28 cells incubated for 48 hrs by sulforhodamine B assay
M14 = assay: Growth inhibition of human M14 cells incubated for 48 hrs by sulforhodamine B assay
CAKI-1 = assay: Growth inhibition of human CAKI-1 cells incubated for 48 hrs by sulforhodamine B assay
SK-MEL-2 = assay: Growth inhibition of human SK-MEL-2 cells incubated for 48 hrs by sulforhodamine B assay
SK-MEL-5 = assay: Growth inhibition of human SK-MEL-5 cells incubated for 48 hrs by sulforhodamine B assay
IGROV-1 = assay: Growth inhibition of human IGROV-1 cells incubated for 48 hrs by sulforhodamine B assay
MCF7 = assay: Growth inhibition of human MCF7 cells incubated for 48 hrs by sulforhodamine B assay
SK-OV-3 = assay: Growth inhibition of human SK-OV-3 cells incubated for 48 hrs by sulforhodamine B assay
HCC 2998 = assay: Growth inhibition of human HCC 2998 cells incubated for 48 hrs by sulforhodamine B assay
LOX IMVI = assay: Growth inhibition of human LOX IMVI cells incubated for 48 hrs by sulforhodamine B assay
NCI-H460 = assay: Growth inhibition of human NCI-H460 cells incubated for 48 hrs by sulforhodamine B assay
[1] = read-out: LC50 (the source's name)

O=C(CNc1ccc(Cl)cc1)Nc1ccc(-c2nc3ccccc3s2)cc1
GI50 (HCT-116): 1.84 µM
TGI (HCT-116): 3.91 µM
CC50 (HCT-116; [1]): 8.3 µM
GI50 (K562): 2.95 µM
LC50 (K562): > 100 µM
TGI (K562): > 100 µM
GI50 (HOP-62): 3.34 µM
TGI (HOP-62): 12.9 µM
CC50 (HOP-62; [1]): > 100 µM
GI50 (A549): 3.31 µM
TGI (A549): 13.7 µM
CC50 (A549; [1]): > 100 µM
GI50 (OVCAR-5): 2.26 µM
LC50 (concentration killing 50% of cells) (OVCAR-5): 23.9 µM
TGI (OVCAR-5): 5.8 µM
GI50 (TK-10): 2.2 µM
LC50 (TK-10): 21.5 µM
TGI (TK-10): 5.84 µM
GI50 (HCT-15): 1.56 µM
TGI (HCT-15): 4.74 µM
CC50 (HCT-15; [1]): 45.9 µM
GI50 (OVCAR-8): 2.56 µM
LC50 (OVCAR-8): > 100 µM
TGI (OVCAR-8): 7.06 µM
GI50 (A498): 13 µM
TGI (A498): 25.8 µM
CC50 (A498; [1]): 50.9 µM
GI50 (MDA-MB-435): 2.66 µM
LC50 (MDA-MB-435): 42.7 µM
TGI (MDA-MB-435): 11.1 µM
GI50 (RXF 393): 1.66 µM
LC50 (concentration killing 50% of cells) (RXF 393): 7.68 µM
TGI (RXF 393): 3.57 µM
GI50 (SN12C): 2.74 µM
LC50 (SN12C): 73.4 µM
TGI (SN12C): 8.49 µM
GI50 (SF-295): 1.28 µM
LC50 (concentration causing 50% net cell kill) (SF-295): 61.8 µM
TGI (SF-295): 28.1 µM
GI50 (OVCAR-4): 2.24 µM
LC50 (OVCAR-4): 42.3 µM
TGI (OVCAR-4): 8.49 µM
GI50 (KM12): 3.24 µM
LC50 (concentration killing 50% of cells) (KM12): 33.5 µM
TGI (KM12): 11.1 µM
GI50 (OVCAR-3): 1.85 µM
LC50 (OVCAR-3): 5.88 µM
TGI (OVCAR-3): 3.3 µM
GI50 (HL-60(TB)): 2.23 µM
TGI (HL-60(TB)): 6.05 µM
CC50 (HL-60(TB); [1]): > 100 µM
GI50 (SF-268): 2 µM
LC50 (SF-268): 15 µM
TGI (SF-268): 4.76 µM
GI50 (Hs-578T): 4.41 µM
LC50 (Hs-578T): > 100 µM
TGI (Hs-578T): 37.7 µM
GI50 (DU-145): 3.34 µM
LC50 (concentration killing 50% of cells) (DU-145): 32.1 µM
TGI (DU-145): 10.3 µM
GI50 (UACC-257): 3.12 µM
LC50 (UACC-257): 57.7 µM
TGI (UACC-257): 11.1 µM
GI50 (MOLT-4): 1.25 µM
LC50 (MOLT-4): > 100 µM
TGI (MOLT-4): 7.09 µM
GI50 (SW-620): 1.89 µM
LC50 (concentration killing 50% of cells) (SW-620): 8.08 µM
TGI (SW-620): 3.9 µM
GI50 (NCI-H522): 1.32 µM
LC50 (50% lethal concentration) (NCI-H522): 7.46 µM
TGI (NCI-H522): 3.13 µM
GI50 (SK-MEL-28): 2.03 µM
LC50 (SK-MEL-28): 9.72 µM
TGI (SK-MEL-28): 4.44 µM
GI50 (M14): 1.78 µM
TGI (M14): 3.84 µM
CC50 (M14; [1]): 8.28 µM
GI50 (CAKI-1): 2.74 µM
LC50 (concentration killing 50% of cells) (CAKI-1): 34.4 µM
TGI (CAKI-1): 10.5 µM
GI50 (SK-MEL-2): 6.19 µM
LC50 (lethal concentration, 50% cell kill) (SK-MEL-2): > 100 µM
TGI (SK-MEL-2): 27.9 µM
GI50 (SK-MEL-5): 1.57 µM
LC50 (50% lethal concentration) (SK-MEL-5): 6.53 µM
TGI (SK-MEL-5): 3.2 µM
GI50 (IGROV-1): 1.9 µM
TGI (IGROV-1): 4.27 µM
CC50 (IGROV-1; [1]): 9.59 µM
GI50 (MCF7): 0.0325 µM
LC50 (MCF7): > 100 µM
TGI (MCF7): 2.5 µM
GI50 (SK-OV-3): 4.57 µM
LC50 (concentration killing 50% of cells) (SK-OV-3): > 100 µM
TGI (SK-OV-3): 61.8 µM
GI50 (HCC 2998): 1.9 µM
TGI (HCC 2998): 3.54 µM
CC50 (HCC 2998; [1]): 6.58 µM
GI50 (LOX IMVI): 1.29 µM
LC50 (LOX IMVI): 5.74 µM
TGI (LOX IMVI): 2.72 µM
GI50 (NCI-H460): 3.73 µM
TGI (NCI-H460): 13.1 µM
CC50 (NCI-H460; [1]): 39.8 µM

From ChEMBL document CHEMBL4765227, “Hit to lead optimization of a series of N-[4-(1,3-benzothiazol-2-yl)phenyl]acetamides as monoacylglycerol lipase inhibitors with potential anticancer activity” (Eur J Med Chem, 2016)
